Results published in ChEMBL document CHEMBL5724914, “Linking interpersonal differences in gut microbiota composition and drug biotransformation activity” (2024).

Columns and labels:
[1] = The drug is tested on Z-011 corresponding to mouse gut metagenome with ENA study accession number: PRJEB37062 and ENA sample accession number: ERS12561811 for biotransformation under anaerobic condition. The drug concentrations were measured over 9 timepoints collected between 0 and 24 hours of incubation by liquid-chromatography-coupled mass spectrometry (LC–MS); settings: 2 µM
[2] = The drug is tested on WLS-069 corresponding to human gut metagenome with ENA study accession number: PRJEB37062 and ENA sample accession number: ERS12561748 for biotransformation under anaerobic condition. The drug concentrations were measured over 9 timepoints collected between 0 and 24 hours of incubation by liquid-chromatography-coupled mass spectrometry (LC–MS); settings: 2 µM
[3] = The drug is tested on Z-026 corresponding to metagenome with ENA study accession number: PRJEB37062 and ENA sample accession number: ERS12561825 for biotransformation under anaerobic condition. The drug concentrations were measured over 9 timepoints collected between 0 and 24 hours of incubation by liquid-chromatography-coupled mass spectrometry (LC–MS); settings: 2 µM
[4] = The drug is tested on Z-014 corresponding to rat gut metagenome with ENA study accession number: PRJEB37062 and ENA sample accession number: ERS12561814 for biotransformation under anaerobic condition. The drug concentrations were measured over 9 timepoints collected between 0 and 24 hours of incubation by liquid-chromatography-coupled mass spectrometry (LC–MS); settings: 2 µM
[5] = human gut metagenome, 24 h, 2 µM
[6] = human gut metagenome, 24 h, 2 µM; remark: listed apart in the source
[7] = The drug is tested on WLS-077 corresponding to human gut metagenome with ENA study accession number: PRJEB37062 and ENA sample accession number: ERS12561750 for biotransformation under anaerobic condition. The drug concentrations were measured over 9 timepoints collected between 0 and 24 hours of incubation by liquid-chromatography-coupled mass spectrometry (LC–MS); settings: 2 µM
[8] = human gut metagenome, 24 h, 2 µM; remark: listed apart in the source
[9] = human gut metagenome, 24 h, 2 µM; remark: listed apart in the source
[10] = The drug is tested on WLS-006 corresponding to human gut metagenome with ENA study accession number: PRJEB37062 and ENA sample accession number: ERS12561741 for biotransformation under anaerobic condition. The drug concentrations were measured over 9 timepoints collected between 0 and 24 hours of incubation by liquid-chromatography-coupled mass spectrometry (LC–MS); settings: 2 µM
[11] = human gut metagenome, 24 h, 2 µM; remark: listed apart in the source
[12] = The drug is tested on Z-016 corresponding to mouse gut metagenome with ENA study accession number: PRJEB37062 and ENA sample accession number: ERS12561815 for biotransformation under anaerobic condition. The drug concentrations were measured over 9 timepoints collected between 0 and 24 hours of incubation by liquid-chromatography-coupled mass spectrometry (LC–MS); settings: 2 µM
[13] = The drug is tested on WLS-010 corresponding to human gut metagenome with ENA study accession number: PRJEB37062 and ENA sample accession number: ERS12561743 for biotransformation under anaerobic condition. The drug concentrations were measured over 9 timepoints collected between 0 and 24 hours of incubation by liquid-chromatography-coupled mass spectrometry (LC–MS); settings: 2 µM
[14] = human gut metagenome, 24 h, 2 µM; remark: listed apart in the source
[15] = The drug is tested on Z-012 corresponding to metagenome with ENA study accession number: PRJEB37062 and ENA sample accession number: ERS12561812 for biotransformation under anaerobic condition. The drug concentrations were measured over 9 timepoints collected between 0 and 24 hours of incubation by liquid-chromatography-coupled mass spectrometry (LC–MS); settings: 2 µM
[16] = human gut metagenome, 24 h, 2 µM; remark: listed apart in the source
[17] = The drug is tested on Z-024 corresponding to pig gut metagenome with ENA study accession number: PRJEB37062 and ENA sample accession number: ERS12561823 for biotransformation under anaerobic condition. The drug concentrations were measured over 9 timepoints collected between 0 and 24 hours of incubation by liquid-chromatography-coupled mass spectrometry (LC–MS); settings: 2 µM
[18] = human gut metagenome, 24 h, 2 µM; remark: listed apart in the source
[19] = The drug is tested on WLS-098 corresponding to human gut metagenome with ENA study accession number: PRJEB37062 and ENA sample accession number: ERS12561754 for biotransformation under anaerobic condition. The drug concentrations were measured over 9 timepoints collected between 0 and 24 hours of incubation by liquid-chromatography-coupled mass spectrometry (LC–MS); settings: 2 µM
Also: call rule not given here.

Row | Structure (SMILES) | Bacterial Biotransformation [1] | Bacterial Biotransformation [2] | Bacterial Biotransformation [3] | Bacterial Biotransformation [4] | Bacterial Biotransformation [5] | Bacterial Biotransformation [6] | Bacterial Biotransformation [7] | Bacterial Biotransformation [8] | Bacterial Biotransformation [9] | Bacterial Biotransformation [10] | Bacterial Biotransformation [11] | Bacterial Biotransformation [12] | Bacterial Biotransformation [13] | Bacterial Biotransformation [14] | Bacterial Biotransformation [15] | Bacterial Biotransformation [16] | Bacterial Biotransformation [17] | Bacterial Biotransformation [18] | Bacterial Biotransformation [19]
1 | O=C1N=C([O-])NC1(c1ccccc1)c1ccccc1.[Na+] [PHENYTOIN SODIUM] | Compound NOT metabolized | Compound metabolized | Compound NOT metabolized | Compound NOT metabolized | Compound metabolized | Compound metabolized | Compound NOT metabolized | Compound metabolized | Compound NOT metabolized | Compound metabolized | Compound metabolized | Compound NOT metabolized | Compound metabolized | Compound metabolized | Compound NOT metabolized | Compound NOT metabolized | Compound NOT metabolized | Compound NOT metabolized | Compound metabolized
2 | N[C@@H](Cc1ccc(N(CCCl)CCCl)cc1)C(=O)O | Compound metabolized | – | – | – | Compound metabolized | Compound NOT metabolized | Compound metabolized | Compound NOT metabolized | Compound metabolized | Compound metabolized | Compound metabolized | – | Compound metabolized | Compound metabolized | – | Compound metabolized | Compound metabolized | – | Compound metabolized
3 | CCCCC(=O)O[C@]1(C(=O)CO)[C@@H](C)C[C@H]2[C@@H]3CCC4=CC(=O)C=C[C@]4(C)[C@@]3(F)[C@@H](O)C[C@@]21C [BETAMETHASONE VALERATE] | – | Compound metabolized | – | – | Compound metabolized | Compound NOT metabolized | Compound metabolized | Compound metabolized | Compound NOT metabolized | Compound metabolized | Compound metabolized | – | Compound metabolized | Compound NOT metabolized | – | Compound NOT metabolized | – | Compound metabolized | Compound NOT metabolized
4 | CNNCc1ccc(C(=O)NC(C)C)cc1 [PROCARBAZINE] | – | Compound metabolized | Compound metabolized | Compound NOT metabolized | Compound metabolized | Compound NOT metabolized | Compound NOT metabolized | Compound metabolized | Compound NOT metabolized | – | Compound metabolized | – | – | Compound NOT metabolized | Compound metabolized | Compound NOT metabolized | Compound metabolized | Compound NOT metabolized | Compound metabolized
